{
  "source": "paper PMC3228873",
  "about": "(Journal of medicinal chemistry, 2011)",
  "key": {"TbrPDEB1": {"target": "TbrPDEB1 (Trypanosoma brucei, UniProt Q8WQX9)", "test": "TbrPDE assay, recombinant TbrPDEB1 catalytic domain", "format": "biochemical", "details": "for inhibition at 100 µM / inhibition at 10 µM: read-out: inhibition of TbrPDEB1; for activity against TbrPDEB1 (in words): benchmark screening; for IC50: read-out: TbrPDEB1 IC50, Table 1, 10% DMSO, 25 μM cAMP, \">> x μM\" if <25% inh at x μM, \"> x μM\" if 25-50% inh at x μM"}, "[1]": {"system": "Bloodstream forms of Trypanosoma brucei brucei strain 427", "test": "Trypanosome cell culture assay", "format": "cell-based"}, "TbrPDEB2": {"target": "TbrPDEB2 (Trypanosoma brucei brucei, UniProt Q38F42)", "test": "TbrPDE assay, recombinant TbrPDEB2 catalytic domain", "format": "biochemical"}},
  "data": [
    {"compound": "COc1ccc(C(=O)Nc2c(Cl)cncc2Cl)cc1OC1CCCC1", "note": "[Compound 1, piclamilast]", "values": [
      {"measurement": "inhibition of TbrPDEB1", "setting": "TbrPDEB1; single concentration, not stated for this compound", "result": "over 50%"}
    ]},
    {"compound": "COc1cc2c(cc1OC)-c1c/c(=N\\c3c(C)cc(C)cc3C)n(C)c(=O)n1CC2", "note": "[Trequinsin (2), trequinsin]", "values": [
      {"measurement": "inhibition at 100 µM", "setting": "TbrPDEB1", "result": "> 50", "unit": "%"}
    ]},
    {"compound": "COc1cc(C(=O)Nc2c(Cl)cncc2Cl)cc(OC)c1OC", "note": "[Compound 9, N-(3,5-dichloropyridin-4-yl)-3,4,5-trimethoxybenzamide]", "values": [
      {"measurement": "activity against TbrPDEB1 (in words)", "setting": "TbrPDEB1", "result": "without TbrPDEB1 or B2 activity"},
      {"measurement": "cellular (trypanocidal) activity (in words)", "setting": "[1]", "result": "did not show cellular activity"},
      {"measurement": "activity against TbrPDEB2 (in words)", "setting": "TbrPDEB2", "result": "without TbrPDEB1 or B2 activity"}
    ]},
    {"compound": "Cc1noc(/C(=C/c2cccc(-c3cc(C(C)(C)S(C)(=O)=O)cc4cccnc34)c2)c2ccc(S(C)(=O)=O)cc2)n1", "note": "[L-454560 (4)]", "values": [
      {"measurement": "inhibition at 10 µM", "setting": "TbrPDEB1", "result": "≥ 50", "unit": "%"}
    ]},
    {"compound": "CS(=O)(=O)Oc1ccc2c(NC(N)=O)c(C(=O)c3ccc(Cl)cc3Cl)oc2c1", "note": "[BAY 19-8004]", "values": [
      {"measurement": "IC50", "setting": "TbrPDEB1", "result": "> 10", "unit": "µM"},
      {"measurement": "IC50", "setting": "TbrPDEB2; read-out: TbrPDEB2 IC50, Table 1, 10% DMSO, 25 μM cAMP, \">> x μM\" if <25% inh at x μM, \"> x μM\" if 25-50% inh at x μM", "result": "> 10", "unit": "µM"}
    ]},
    {"compound": "O=C(Nc1c(Cl)cncc1Cl)c1ccc(OC(F)F)c(OCC2CC2)c1", "note": "[Roflumilast (6), roflumilast]", "values": [
      {"measurement": "activity against TbrPDEB1 (in words)", "setting": "TbrPDEB1", "result": "essentially inactive"}
    ]},
    {"compound": "CCCCOc1cc(CC2CNC(=O)N2)ccc1OC", "note": "(stereo not shown) [RO 20-1724]", "values": [
      {"measurement": "IC50", "setting": "TbrPDEB1", "result": "> 100", "unit": "µM"}
    ]},
    {"compound": "COc1ccc(C2CNC(=O)C2)cc1OC1CCCC1", "note": "(stereo not shown) [Rolipram (7), rolipram]", "values": [
      {"measurement": "activity against TbrPDEB1 (in words)", "setting": "TbrPDEB1", "result": "essentially inactive"}
    ]},
    {"compound": "COc1cccc(Nc2c(C(N)=O)cnc3c(C)cc(S(=O)(=O)c4cccc(C(=O)N(C)C)c4)cc23)c1", "note": "[GSK-256066, (5)]", "values": [
      {"measurement": "inhibition at 10 µM", "setting": "TbrPDEB1", "result": "≥ 50", "unit": "%"}
    ]},
    {"compound": "OCCN(CCO)c1nc(N2CCCCC2)c2nc(N(CCO)CCO)nc(N3CCCCC3)c2n1", "note": "[Dipyridamole (3), dipyridamole]", "values": [
      {"measurement": "inhibition at 100 µM", "setting": "TbrPDEB1", "result": "> 50", "unit": "%"}
    ]}
  ]
}
